Experiment [1] deals with ulcers (Psychosomatic Frustration, M. Bonfils). Put plainly: Anti-ulcer action, psychosomatic frustration ulcers (M. Bonfils). In kind it is in vivo, rats. Conditions: oral.
Experiment [2] deals with ulcers (Pyloric Ligature, M. Shay). In words: Anti-ulcer action, pyloric ligature ulcers (M. Shay). In kind it is in vivo, rats.
Experiment [3] concerns ulcers (reserpine). In words: Anti-ulcer action, reserpine-induced ulcers. The settings on record: intra-peritoneal. It counts as in vivo, rats. The source says:
Dose mg./Kg. Inhibition %
Reserpine 5 Intra-peritoneal

Experiment [4] has as its system different artificially invoked conditions. Put plainly: Neurotropic, musculotropic, antihistaminic, anti-ulcer and healing activity in different artificially invoked conditions. It counts as in vivo. The settings on record: different artificially invoked conditions in mice, rats, Guinea pigs, rabbits and dogs.
In experiment [5] the test system is ulcers (phenylbutazone). In words: Anti-ulcer action, phenylbutazone-induced ulcers. It counts as in vivo, rats. Conditions: oral.

The text below walks through data of patent publication US4103019A, “Triterpene derivatives” (Laboratorios Landerlan, S. A., priority 1975, dated 1978).

The structures appear in SMILES notation.

Regarding `CC1(C(=O)OCC2CCC[N+]2(C)C)CCC2(C)CCC3(C)C(=CC(=O)C4C5(C)CCC(O)C(C)(C)C5CCC43C)C2C1` (centres unmarked) [Example 3, 2-(glycyrrhetinoylmethyl) N-methyl pyrrolidine methylsulfate], the Inhibition % in experiment [1] (5 mg./Kg.) came out at 42%; in experiment [1] (10 mg./Kg.), 33%; in experiment [1] (20 mg./Kg.), 18%; in experiment [2] (2.5 mg./Kg., intra-peritoneal) it was 52%; in experiment [2] (5 mg./Kg., intra-dermal) it was 36%; in experiment [2] (10 mg./Kg., intra-peritoneal), 69%. For the same compound, the Inhibition % in experiment [2] (15 mg./Kg., intra-peritoneal) stood at 48%; in experiment [2] (25 mg./Kg., intra-peritoneal), 69%; in experiment [3] (5 mg./Kg.), 42%; in experiment [3] (10 mg./Kg.), 25%; in experiment [3] (25 mg./Kg.), 25%. Besides, in experiment [4], the “activity as neurotropic, musculotropic antihistaminic, anti-ulcer and healing agents” value is on record as “outstanding activity”.
For `CC1(C(=O)OCC2CCC[N+]2(C)C)CCC2(C)CCC3(C)C(=CC(=O)C4C5(C)CCC(O)C(C)(C)C5CCC43C)C2C1` (centres unmarked) [Example 4, 2(glycyrrhetinoyl methyl) N-methylpyrrolidine methylbromide], the Inhibition % is 52% in experiment [1] (5 mg./Kg.); 43% in experiment [1] (10 mg./Kg.); 25% in experiment [1] (50 mg./Kg.); 27% in experiment [2] (2.5 mg./Kg., intra-dermal); 29% in experiment [2] (5 mg./Kg., intra-dermal); 65% in experiment [2] (5 mg./Kg., intra-peritoneal). In addition, the Inhibition % in experiment [2] (10 mg./Kg., intra-dermal) was 24%; in experiment [2] (10 mg./Kg., intra-peritoneal) it was 55%; in experiment [3] (5 mg./Kg.), 8%; in experiment [3] (10 mg./Kg.), 47%; in experiment [3] (25 mg./Kg.), 13%; in experiment [5] (5 mg./Kg.), 22%. The compound further gave an Inhibition % in experiment [5] (10 mg./Kg.) of 23%. In addition, the “activity as neurotropic, musculotropic antihistaminic, anti-ulcer and healing agents” value in experiment [4] is reported as “outstanding activity”.
